The conditions of data set [1]: Liquid; for viscosity / mass density: 101 kPa; for mass density: Pycnometric method; for speed of sound: 101.33 kPa, Frequency=2 MHz, Linear variable-path acoustic interferometer.
A short description of data set [2]: xn = mol fraction of the nth substance listed. As to conditions: 101 kPa, Liquid, x1 = 1; for speed of sound: Frequency=2 MHz, Linear variable-path acoustic interferometer; for mass density: Pycnometric method.

Numbers after ± are expanded uncertainties.

On to `CCCCCCCCCCO` [decan-1-ol], for which, in data set [1] (303.15 K), the viscosity was 9.716 ± 0.37 mPa·s, the mass density came to 822.87 ± 0.29 kg/m3 and the speed of sound stood at 1366 ± 3 m/s. In addition, in data set [1] (313.15 K), the viscosity is listed as 6.82 ± 0.28 mPa·s, the mass density is 815.97 ± 0.31 kg/m3 and the speed of sound is reported as 1334 ± 3 m/s.

Regarding `CCCCCCCO` [heptan-1-ol], in data set [1] (303.15 K), the viscosity was found to be 5.048 ± 0.22 mPa·s, the mass density is recorded as 814.89 ± 0.29 kg/m3 and the speed of sound amounted to 1313 ± 3 m/s. Moreover, in data set [1] (313.15 K), the viscosity was determined as 3.712 ± 0.17 mPa·s, the mass density is on record as 807.68 ± 0.3 kg/m3 and the speed of sound is 1279 ± 3 m/s.

Take `CCCCCCCCO` [octan-1-ol]: in data set [1] (303.15 K), the viscosity worked out at 6.433 ± 0.26 mPa·s, the mass density was found to be 818.38 ± 0.29 kg/m3 and the speed of sound was found to be 1334 ± 3 m/s. In addition, in data set [1] (313.15 K), the viscosity stood at 4.603 ± 0.2 mPa·s, the mass density is given as 811.05 ± 0.3 kg/m3 and the speed of sound is 1304 ± 3 m/s.

For the molecule `Cc1ccccc1` [toluene], in data set [1] (303.15 K), the viscosity amounted to 0.525 ± 0.029 mPa·s, the mass density amounted to 856.62 ± 0.31 kg/m3 and the speed of sound is listed as 1289 ± 3 m/s. In addition, in data set [1] (313.15 K), the viscosity was 0.471 ± 0.027 mPa·s, the mass density was found to be 847.03 ± 0.32 kg/m3 and the speed of sound came to 1256 ± 2 m/s.

`Cc1ccccc1` [toluene] + CCCCCCCCCCO: in data set [2] (303.15 K), the speed of sound is listed as 1289 ± 3 m/s, the mass density came to 856.62 ± 0.31 kg/m3 and the viscosity was 0.525 ± 0.029 mPa·s. In data set [2] (313.15 K), the speed of sound is 1256 ± 2 m/s, the mass density was 847.03 ± 0.32 kg/m3 and the viscosity came to 0.471 ± 0.027 mPa·s.

Take `Cc1ccccc1` [toluene] + CCCCCCCCO: in data set [2] (303.15 K), the speed of sound amounted to 1289 ± 3 m/s, the mass density is listed as 856.62 ± 0.31 kg/m3 and the viscosity is on record as 0.525 ± 0.029 mPa·s. In data set [2] (313.15 K), the speed of sound was found to be 1256 ± 2 m/s, the mass density turned out to be 847.03 ± 0.32 kg/m3 and the viscosity was 0.471 ± 0.027 mPa·s.

Consider `Cc1ccccc1` [toluene] + CCCCCCCO, for which, in data set [2] (303.15 K), the speed of sound was found to be 1289 ± 3 m/s, the mass density turned out to be 856.62 ± 0.31 kg/m3 and the viscosity worked out at 0.525 ± 0.029 mPa·s. Besides, in data set [2] (313.15 K), the speed of sound is 1256 ± 2 m/s, the mass density was 847.03 ± 0.32 kg/m3 and the viscosity worked out at 0.471 ± 0.027 mPa·s.

Source of the values: the NIST ThermoML archive (doi:10.1021/je0602519).
